Experimental data from patent US20060276528A1, “Novel benzo-fused heteroaryl sulfamide derivatives useful as anticonvulsant agents” (priority 2004, published 2006).

What was measured:
[1] = system: MES-induced seizure (full body tonic extension); test: Maximal Electroshock Test (MES), anticonvulsant activity; assay type: in vivo, CF-1 male albino mice; details: oral; for MES @100 mpk: (number of mice with full body tonic extension prevented)/(total number of mice tested) / MES @100 mpk, result in words: 100 mg/kg; for MES @100 mpk, result in words: mice, time not given; for MES @ 300 mpk: (number of mice with full body tonic extension prevented)/(total number of mice tested): 300 mg/kg
Procedure: Anticonvulsant activity was determined using the MES test, run according to the procedure described in detail below. Swinyard E A, Woodhead J H, White H S, Franklin M R. Experimental selection, quantification, and evaluation of anticonvulsants. In Levy R H, et al., eds. Antiepileptic Drugs. 3rd ed. New York: Raven Press, 1989:85-102 CF-1 male albino mice (25-35 g) were fasted for 16 hours before testing. Mice were randomly selected into control and test groups, with the animals dosed with vehicle or test compound, at varying concentrations, respectively. On the study date, at 30 minutes prior to shock, the mice were orally dosed with vehicle (0.5% methylcellulose) or test compound (100-300 mg/kg). Seizures were induced by trans-corneal electric shock using a 60-Hz alternating current, 50 mA, delivered for 0.2 sec. The mice in the test groups were subjected to electrical stimulus at time intervals between 15 minutes and 4 hours following administration of test compound. […] The test was complete when the entire course of the convulsion has been observed (typically, less than 1 minute after electrical stimulation), and the mice were then immediately euthanized by carbon dioxide inhalation. Abolition of the full body tonic extensor component of the seizure was taken as the endpoint of the test. […] The ED50 value of the test compound (calculated when appropriate) was the calculated dose required to block the hind limb tonic-extensor component of the MES-induced seizure in 50% of the rodents tested. A probit analysis was used to calculate the ED50 and 95% fiducial limits (FL). Representative compounds of the present invention were tested according to the procedure described above, with results as listed in Table 6 below. Results are listed as (number of mice with full body tonic extension prevented)/(total number of mice tested) (@ a given time).

[2] = system: carbonic anhydrase; details: background statement, figure not given; cited from earlier work

NS(=O)(=O)NCc1csc2ccccc12 [Compound 1, N-(benzo[b]thien-3-ylmethyl)-sulfamide]
MES @100 mpk: (number of mice with full body tonic extension prevented)/(total number of mice tested) ([1]; 0.5 h after dosing): 1/5 (0.5 h)
MES @100 mpk: (number of mice with full body tonic extension prevented)/(total number of mice tested) ([1]; 2 h after dosing): 3/5 (2 h)
MES @100 mpk: (number of mice with full body tonic extension prevented)/(total number of mice tested) ([1]; 4 h after dosing): 2/5 (4 h)

NS(=O)(=O)NCc1csc2ccc(Cl)cc12 [Compound 3, N-[(5-chlorobenzo[b]thien-3-yl)methyl]-sulfamide]
MES @100 mpk, result in words [1]: inactive
MES @ 300 mpk: (number of mice with full body tonic extension prevented)/(total number of mice tested) ([1]; 0.5 hr after dosing): 0/5 (0.5 hr)
MES @ 300 mpk: (number of mice with full body tonic extension prevented)/(total number of mice tested) ([1]; 2 hr after dosing): 3/5 (2 hr)
MES @ 300 mpk: (number of mice with full body tonic extension prevented)/(total number of mice tested) ([1]; 4 hr after dosing): 1/5 (4 hr)

NS(=O)(=O)NCc1coc2ccccc12 [Compound 6, N-(3-benzofuranylmethyl)-sulfamide]
MES @100 mpk, result in words [1]: inactive
MES @ 300 mpk: (number of mice with full body tonic extension prevented)/(total number of mice tested) ([1]; 0.5 hr after dosing): 5/5 (0.5 hr)
MES @ 300 mpk: (number of mice with full body tonic extension prevented)/(total number of mice tested) ([1]; 2 hr after dosing): 0/5 (2 hr)
MES @ 300 mpk: (number of mice with full body tonic extension prevented)/(total number of mice tested) ([1]; 4 hr after dosing): 0/5 (4 hr)

Cn1cc(CNS(N)(=O)=O)c2ccccc21 [Compound 7, N-[(1-methyl-1H-indol-3-yl)methyl]-sulfamide]
MES @100 mpk, result in words [1]: inactive
MES @ 300 mpk: (number of mice with full body tonic extension prevented)/(total number of mice tested) ([1]; 0.5 hr after dosing): 5/5 (0.5 hr)
MES @ 300 mpk: (number of mice with full body tonic extension prevented)/(total number of mice tested) ([1]; 2 hr after dosing): 0/5 (2 hr)
MES @ 300 mpk: (number of mice with full body tonic extension prevented)/(total number of mice tested) ([1]; 4 hr after dosing): 0/5 (4 hr)

NS(=O)(=O)NCc1csc2ccc(F)cc12 [Compound 8, N-[(5-fluorobenzo[b]thien-3-yl)methyl]-sulfamide]
MES @100 mpk: (number of mice with full body tonic extension prevented)/(total number of mice tested) ([1]; 0.5 h after dosing): 0/5 (0.5 h)
MES @100 mpk: (number of mice with full body tonic extension prevented)/(total number of mice tested) ([1]; 2 h after dosing): 4/5 (2 h)
MES @100 mpk: (number of mice with full body tonic extension prevented)/(total number of mice tested) ([1]; 4 h after dosing): 1/5 (4 h)

CC(NS(N)(=O)=O)c1csc2ccccc12 (stereo not shown) [Compound 9, N-(1-benzo[b]thien-3-ylethyl)-sulfamide]
MES @100 mpk: (number of mice with full body tonic extension prevented)/(total number of mice tested) ([1]; 0.5 h after dosing): 1/5 (0.5 h)
MES @100 mpk: (number of mice with full body tonic extension prevented)/(total number of mice tested) ([1]; 2 h after dosing): 0/5 (2 h)
MES @100 mpk: (number of mice with full body tonic extension prevented)/(total number of mice tested) ([1]; 4 h after dosing): 0/5 (4 h)

NS(=O)(=O)NCc1cccc2ccccc12 [Compound 10, N-(1-naphthalenylmethyl)-sulfamide]
MES @100 mpk: (number of mice with full body tonic extension prevented)/(total number of mice tested) ([1]; 0.5 h after dosing): 2/5 (0.5 h)
MES @100 mpk: (number of mice with full body tonic extension prevented)/(total number of mice tested) ([1]; 2 h after dosing): 1/5 (2 h)
MES @100 mpk: (number of mice with full body tonic extension prevented)/(total number of mice tested) ([1]; 4 h after dosing): 0/5 (4 h)

Cc1oc2ccccc2c1CNS(N)(=O)=O [Compound 13]
MES @100 mpk: (number of mice with full body tonic extension prevented)/(total number of mice tested) ([1]; 0.5 h after dosing): 4/5 (0.5 h)
MES @100 mpk: (number of mice with full body tonic extension prevented)/(total number of mice tested) ([1]; 2 h after dosing): 0/5 (2 h)
MES @100 mpk: (number of mice with full body tonic extension prevented)/(total number of mice tested) ([1]; 4 h after dosing): 0/5 (4 h)

NS(=O)(=O)NCc1csc2ccc(Br)cc12 [Compound 15, N-[(5-bromobenzo[b]thien-3-yl)methyl]-sulfamide]
MES @ 300 mpk: (number of mice with full body tonic extension prevented)/(total number of mice tested) ([1]; 0.5 hr after dosing): 0/3 (0.5 hr)
MES @ 300 mpk: (number of mice with full body tonic extension prevented)/(total number of mice tested) ([1]; 2 hr after dosing): 0/3 (2 hr)
MES @ 300 mpk: (number of mice with full body tonic extension prevented)/(total number of mice tested) ([1]; 4 hr after dosing): 1/3 (4 hr)

NS(=O)(=O)NCc1csc2cccc(Br)c12 [Compound 17, N-[(4-bromobenzo[b]thien-3-yl)methyl]-sulfamide]
MES @ 300 mpk: (number of mice with full body tonic extension prevented)/(total number of mice tested) ([1]; 0.5 hr after dosing): 0/3 (0.5 hr)
MES @ 300 mpk: (number of mice with full body tonic extension prevented)/(total number of mice tested) ([1]; 2 hr after dosing): 0/3 (2 hr)
MES @ 300 mpk: (number of mice with full body tonic extension prevented)/(total number of mice tested) ([1]; 4 hr after dosing): 1/3 (4 hr)

NS(=O)(=O)NCc1csc2c(F)cccc12 [Compound 18, N-[(7-fluorobenzo[b]thien-3-yl)methyl]-sulfamide]
MES @ 300 mpk: (number of mice with full body tonic extension prevented)/(total number of mice tested) ([1]; 0.5 hr after dosing): 0/3 (0.5 hr)
MES @ 300 mpk: (number of mice with full body tonic extension prevented)/(total number of mice tested) ([1]; 2 hr after dosing): 2/3 (2 hr)
MES @ 300 mpk: (number of mice with full body tonic extension prevented)/(total number of mice tested) ([1]; 4 hr after dosing): 0/3 (4 hr)

CC1(C)O[C@@H]2[C@@H](CO[C@@]3(COS(N)(=O)=O)OC(C)(C)O[C@@H]23)O1 [Topiramate]
carbonic anhydrase inhibition [2]: single digit micromolar
